Assay results reported in PMC11436758, “Computer-aided drug design to generate a unique antibiotic family” (Nature Communications, 2024).
≈ marks a conversion by molar mass, not a printed value. One block for each compound: values may come before it.

Legend:
Type in all cases: cell-based
A. baumannii ATCC 19606 = test: MIC alone and MIC of colistin in combination with DNM compounds; conditions: compound alone
Procedure: (§1) The medium employed for the assay was Mueller Hinton II Broth (MHB II; Becton-Dickinson, Sparks, MD, USA). Agar plates used for the organisms were trypticase soy agar plus 5% sheep blood (BD; Sparks, MD, USA). MIC assay plates were prepared using the CLSI broth microdilution procedure. Automated liquid handlers (Multidrop 384, Biomek 2000 and Biomek FX) were used to conduct serial dilutions and liquid transfers. A standardized inoculum of each organism was prepared per CLSI methods. Suspensions were prepared to equal a 0.5 McFarland standard, followed by a 1:20 dilution in test media. The inocula were dispensed into sterile reservoirs divided by length (Beckman Colter) and the Biomek 2000 was used to inoculate the plates. Daughter plates were placed on the Biomek 2000 work surface in reverse orientation so that inoculation took place from low to high drug concentration. The Biomek 2000 delivered 10 μL of the diluted suspension into each well. These inoculations yielded a final cell concentration in the daughter plates of ~5 × 10^5 colony-forming units/mL in each well. The wells of the daughter plates ultimately contained 185 μL of broth, 5 μL of drug solution, and 10 μL of bacterial inoculum. Plates were covered with a sterile lid on the top plate, placed in plastic bags, and incubated at 35 °C for ~18 h. The microplates were viewed from the bottom using a plate viewer and the MIC was read. The MIC was recorded as the lowest concentration of drug that inhibited visible growth of the organism. Uninoculated solubility control plates were also observed for evidence of drug precipitation.
(§2) Compound K. pneumoniae A. baumannii E. coli P. aeruginosa […]
(§3) Supplementary Table 3. Minimum inhibitory concentration (MIC; µg/ml) of DNM
(§4) compounds that show potential synergy in combination with colistin. […]

E. coli ATCC 25922 = test: as above; conditions: compound alone, bracket after colistin value is a range (0.25-2)
Procedure: as §1, §2, §3, §4

K. pneumoniae MMX8390 = test: as above; conditions: compound alone
Procedure: as §1, §2, §3, §4

P. aeruginosa ATCC 27853 = test: as above; conditions: compound alone, bracket after colistin value is a range (0.25-4)
Procedure: as §1, §2, §3, §4

K. pneumoniae = test: FIC checkerboard testing with colistin (FICI); conditions: in combination with colistin
Procedure: For FIC testing, test ranges were set based on broth microdilution MIC test data. The wells of a standard 96-well microdilution plate (Costar) were filled with 150 μL of water in columns 2 through 12. A 300 μL aliquot of colistin at 40X the highest final concentration to be tested was added to each well in Column 1 of the plate. The Biomek 2000 was used to make eleven 2-fold serial dilutions in the “combination agent parental” plate from columns 2 through 11. The wells of the “test-agent parental” plate were filled with 150 μL of DMSO in rows B through H. Row A of this plate was filled with 300 μL of the DNM compound stock solution at 40X the highest final concentration to be tested. Serial 2-fold dilutions were then prepared from row B-G by hand using a multichannel pipette. The “daughter plates” were loaded with 180 μL of CAMHB using the Multidrop 384. The Biomek FX was used to transfer 5 μL of colistin from each well of the comparator parental plate to the corresponding well in all the daughter plates in a single step. Then a 5 μL aliquot from each well of the test agent parental plate was transferred by hand into the corresponding well of the daughter plate. Row H and Column 12 each contained serial dilutions of test agent and the combination agent alone, respectively, for determination of the MIC. This procedure was repeated for all test agents evaluated in combination with comparators. A standardized inoculum of each organism was prepared per CLSI methods. Colonies were picked from the primary plate and a suspension was prepared to equal a 0.5 McFarland turbidity standard. The suspensions were additionally diluted 1:20 in broth. A 10 μL standardized inoculum was delivered into each well using the Biomek 2000 from low to high concentration. These inoculations yielded a final cell concentration in the daughter plates of […]. Thus, the wells of the daughter plates ultimately contained […], 5 μL of test agent, 5 μL of the colistin, and 10 μL of inoculum. […] Plates were covered with a lid on the top plate, placed in plastic bags, and incubated at 35 °C for ~18 h. Plates were viewed from the bottom using a plate viewer. Prepared reading sheets were marked for the MIC of the combination agent, the MIC of test agent, and the wells of the growth-no growth interface for wells containing test agent and combination agent at varying ratios. […] For each relevant row of the panel, the FIC index (FICI) and mean FICI was calculated by: FICdrug A/MICdrug A + FICdrug B/MICdrug B = FIC index (FICI). The mean FICI for the combination was interpreted as follows: <0.5 = synergy, >0.5–4 = additive/indifferent, and >4 = antagonism. Microbiological measurements were performed and evaluated with Micromyx LLC (Kalamazoo, MI, USA).

COS7 cells = test: in vitro; conditions: COS7 cells
Procedure: (§5) Stock solutions of the test agents were prepared in DMSO (40 mg/mL) and stored at −20 °C until use. AlamarBlue HS™ cell viability reagent was acquired from Invitrogen (Cat # A50100, Carlsbad, CA). COS7 and HEK293 cells (obtained from ATCC) were cultured and tested at 37 °C in a 5% CO2/100% humidity environment in DMEM media supplemented with 10% fetal bovine serum. Cells were trypsinized, centrifuged, resuspended in cell media, counted on a hemacytometer, and diluted to an appropriate cell density to give the desired number of cells per 300 μl media. Cells were then loaded into 48-well cell culture plates (3548; Corning, Inc.); 300 μl/well at 60,000 cells per well. The cell density was determined in preliminary tests to give linear AlamarBlue HS™ readings over a 3.5 h period for HEK293 cells and 2 h period for COS7 cells after 2 days of growth; 2 wells per plate were loaded with 300 μl/well of cell-free media to provide background readings. Plates were cultured overnight, after which test agent solutions were prepared in media at the highest test concentration (100 ug/mL) and at five serial dilutions, each containing 0.25% DMSO and 0.125% Kolliphor® EL (Cat# 27963, Sigma Aldrich). The compounds concentrations were then loaded in separate columns via 300 μl/well. […] Normalized values representing the amount of AlamarBlue converted to its […] form were calculated for each well using background-corrected absorbances as described by the Alamar-Blue HS protocol information packet available from Invitrogen Technical Support. The fraction of control viability for each agent concentration with each cell line was then determined by the ratio of normalized values for the treated wells to the control wells. […] Values were determined by linear interpolation of fraction of control growth against concentration for the test agent concentrations.

HEK293 cells = test: in vitro
Procedure: as §5

MIC (A. baumannii ATCC 19606): > 64 µg/mL
MIC (E. coli ATCC 25922): > 64 µg/mL
MIC (K. pneumoniae MMX8390): > 64 µg/mL
MIC (P. aeruginosa ATCC 27853): > 64 µg/mL
Compound: CC(C)c1cc(Cl)ccc1-c1cc(C(N)=O)sc1-c1ccc(Cl)cc1C(C)C [DNM0650]

Compound: colistin [reference compound]
MIC (A. baumannii ATCC 19606): 0.25 µg/mL
MIC (E. coli ATCC 25922): 0.25 µg/mL
MIC (K. pneumoniae MMX8390): 16 µg/mL
MIC (P. aeruginosa ATCC 27853): 0.25 µg/mL

Compound: Cc1cc(Cl)ccc1-c1cc(C(N)=O)sc1-c1ccc(Cl)cc1C [DNM0652]
MIC (A. baumannii ATCC 19606): > 64 µg/mL
MIC (E. coli ATCC 25922): > 64 µg/mL
MIC (K. pneumoniae MMX8390): > 64 µg/mL
MIC (P. aeruginosa ATCC 27853): > 64 µg/mL
Mean FICI (K. pneumoniae; K. pneumoniae (ATCC 13883)): 0.19
Mean FICI (K. pneumoniae; K. pneumoniae (FDA-CDC AR-BANK0040)): 0.41
Mean FICI (K. pneumoniae; K. pneumoniae (FDA-CDC AR-BANK0046)): 0.4
Mean FICI (K. pneumoniae; K. pneumoniae (FDA-CDC AR-BANK0047)): 0.3
Mean FICI (K. pneumoniae; K. pneumoniae (FDA-CDC AR-BANK0087)): 0.38
Mean FICI (K. pneumoniae; K. pneumoniae (FDA-CDC AR-BANK0097)): 0.34
Mean FICI (K. pneumoniae; K. pneumoniae (FDA-CDC AR-BANK0106)): 0.32
Mean FICI (K. pneumoniae; K. pneumoniae (FDA-CDC AR-BANK0109)): 0.35
Mean FICI (K. pneumoniae; K. pneumoniae (FDA-CDC AR-BANK0125)): 0.32
Mean FICI (K. pneumoniae; K. pneumoniae (FDA-CDC AR-BANK0364)): 0.29
Mean FICI (K. pneumoniae; K. pneumoniae (FDA-CDC AR-BANK0454)): 0.28
interpretation of mean FICI (K. pneumoniae; each strain of the Klebsiella panel): Synergy
LC50 (COS7 cells; 24 h): 37 µg/mL (≈ 98.3 µM)
IC50 (cell viability) (COS7 cells; 24 hrs): 37434 ng/mL (≈ 99.5 µM)
LC50 (HEK293 cells; HEK293 cells, 24 h): 35 µg/mL (≈ 93 µM)
IC50 (cell viability) (HEK293 cells; Hek293 cells, 24 hrs): 35256 ng/mL (≈ 93.7 µM)
Log IC50 (cell viability) (HEK293 cells; Hek293 cells, 24 hrs): 4.547

MIC (A. baumannii ATCC 19606): > 64 µg/mL
MIC (E. coli ATCC 25922): > 64 µg/mL
MIC (K. pneumoniae MMX8390): > 64 µg/mL
MIC (P. aeruginosa ATCC 27853): > 64 µg/mL
Compound: Cc1cc(Cl)ccc1-c1cc(S(N)(=O)=O)sc1-c1ccc(Cl)cc1C [DNM0658]
